# Activity calls are given as the source filed them. The calls are words filed in the database; no cut-off is given here.
# Molecular target: T1, Acetylcholinesterase (Homo sapiens, UniProt P22303)
# Test: Inhibition of AChE (unknown origin) using acetylthiocholine iodide as substrate preincubated for 10 mins followed by substrate addition measured after 10 mins by Ellman's method
# T1 sequence (P22303 whole entry): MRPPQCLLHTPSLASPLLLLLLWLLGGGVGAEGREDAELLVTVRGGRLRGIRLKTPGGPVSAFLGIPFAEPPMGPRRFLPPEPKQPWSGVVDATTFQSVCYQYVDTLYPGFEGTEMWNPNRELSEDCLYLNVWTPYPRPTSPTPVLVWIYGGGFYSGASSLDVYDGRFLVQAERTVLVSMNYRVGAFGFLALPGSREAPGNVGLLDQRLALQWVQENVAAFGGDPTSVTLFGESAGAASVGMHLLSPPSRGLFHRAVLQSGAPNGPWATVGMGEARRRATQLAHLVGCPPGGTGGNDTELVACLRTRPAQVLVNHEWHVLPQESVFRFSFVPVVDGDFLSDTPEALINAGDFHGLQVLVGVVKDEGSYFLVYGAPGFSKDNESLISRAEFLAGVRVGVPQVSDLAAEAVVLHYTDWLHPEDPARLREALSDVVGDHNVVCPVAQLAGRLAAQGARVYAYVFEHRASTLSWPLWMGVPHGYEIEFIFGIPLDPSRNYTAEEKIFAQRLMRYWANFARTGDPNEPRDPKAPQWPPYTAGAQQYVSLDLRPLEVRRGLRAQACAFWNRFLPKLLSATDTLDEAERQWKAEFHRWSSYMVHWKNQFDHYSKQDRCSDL
row,Structure (SMILES),IC50 [µM]
1,CC(=O)OC(C)(C)/C=C/C(=O)[C@](C)(O)[C@H]1[C@H](O)C[C@@]2(C)[C@@H]3CC=C(C(C)(C)C(=O)O)C4=CC(=O)O[C@](O)(C[C@]12C)[C@@]43C,2.6
2,CC(=O)OC(C)(C)/C=C/C(=O)[C@](C)(O)[C@H]1[C@H](O)C[C@@]2(C)[C@@H]3CC=C(C(C)(C)C(=O)O)/C(=C\C(=O)O)[C@]3(C)C(=O)C[C@]12C,3.1

# Molecular target: T1, Acetylcholinesterase
# Test: Inhibition of AChE (unknown origin) at 10 uM using acetylthiocholine iodide as substrate preincubated for 10 mins followed by substrate addition measured after 10 mins by Ellman's method
row,Structure (SMILES),inhibition
1,COC(=O)C(C)(C)C1=CC[C@@H]2[C@@](C)(C(=O)C[C@]3(C)[C@@H]([C@@](C)(O)C(=O)/C=C/C(C)(C)OC(C)=O)[C@H](O)C[C@@]23C)/C1=C/C(=O)O,inactive
2,CC(=O)OC(C)(C)/C=C/C(=O)[C@](C)(O)[C@H]1[C@H](O)C[C@@]2(C)[C@@H]3[C@@H](O)C=C4[C@@H](C=C(O[C@@H]5O[C@H](CO)[C@@H](O)[C@H](O)[C@H]5O)C(=O)C4(C)C)[C@]3(C)C(=O)C[C@]12C,inactive
3,CC(=O)OC(C)(C)CCC(=O)[C@](C)(O)[C@H]1[C@H](O)C[C@@]2(C)[C@@H]3CC=C4[C@@H](C[C@H](O[C@@H]5O[C@H](CO)[C@@H](O)[C@H](O)[C@H]5O)C(=O)C4(C)C)[C@]3(C)C(=O)C[C@]12C,inactive
4,CC(=O)OC[C@H]1O[C@@H](OC2=C[C@@H]3C(=CC[C@@H]4[C@@]3(C)C(=O)C[C@]3(C)[C@@H]([C@@](C)(O)C(=O)/C=C/C(C)(C)OC(C)=O)[C@H](O)C[C@@]43C)C(C)(C)C2=O)[C@H](O)[C@@H](O)[C@@H]1O,inactive
5,CC(=O)OC(C)(C)/C=C/C(=O)[C@](C)(O)[C@H]1[C@H](O)C[C@@]2(C)[C@@H]3CC=C4[C@@H](C[C@H](O)C(=O)C4(C)C)[C@]3(C)C(=O)C[C@]12C,inactive
6,CC(=O)OC(C)(C)/C=C/C(=O)[C@](C)(O)[C@H]1[C@H](O)C[C@@]2(C)[C@@H]3CC=C(C(C)(C)C(=O)O)/C(=C\C#N)[C@]3(C)C(=O)C[C@]12C,inactive
7,CC(=O)OC(C)(C)CCC(=O)[C@](C)(O)[C@H]1[C@H](O)C[C@@]2(C)[C@@H]3CC=C4[C@@H](C[C@H](O)C(=O)C4(C)C)[C@]3(C)C(=O)C[C@]12C,inactive
8,CC(=O)OC(C)(C)/C=C/C(=O)[C@](C)(O)[C@H]1[C@H](O)C[C@@]2(C)[C@@H]3CC=C4[C@@H](C[C@H](O[C@@H]5O[C@H](CO)[C@@H](O)[C@H](O)[C@H]5O)C(=O)C4(C)C)[C@]3(C)C(=O)C[C@]12C,inactive
9,CC(=O)OC(C)(C)/C=C/C(=O)[C@](C)(O)[C@H]1[C@H](O)C[C@@]2(C)[C@@H]3CC=C4[C@@H](C=C(O)C(=O)C4(C)C)[C@]3(C)C(=O)C[C@]12C,inactive

# — ChEMBL document CHEMBL4196184, “Colocynthenins A-D, Ring-A seco-Cucurbitane Triterpenoids from the Fruits of Citrullus colocynthis” (J Nat Prod, 2018)
